Assay [1] concerns Neofusicoccum australe. Kind of assay: Fungicidal activity against Neofusicoccum australe J-3 assessed as conidial germination inhibition after 48 hr. Type of assay: functional, organism-based. The following applies: pooled result: one value given for 3 cell lines, strains, targets or settings.
For assay [2], the system named is Neofusicoccum luteum. Description: Fungicidal activity against Neofusicoccum luteum infected Pinot noir grapevine assessed as pathogen incidence at area beyond node compound applied 24 hr prior inoculation to pruning wound measured after 1 year. Type of assay: functional. On the set-up: concentration or dose not given beside the values.
Assay [3] relates to Neofusicoccum luteum. Description: Fungicidal activity against Neofusicoccum luteum infected Pinot noir grapevine assessed as pathogen incidence at dieback edges compound applied 24 hr prior inoculation to pruning wound measured after 1 year. Type of assay: functional. On the set-up: concentration or dose not given beside the values.
Assay [4] relates to Neofusicoccum luteum. Description: Fungicidal activity against Neofusicoccum luteum infected Pinot noir grapevine assessed as pathogen incidence at dieback sites compound applied 24 hr prior inoculation to pruning wound measured after 1 year. Type of assay: functional. Details: concentration or dose not given beside the values.
The subject of assay [5] is Neofusicoccum luteum. Description: Fungicidal activity against Neofusicoccum luteum infected Pinot noir grapevine assessed as pathogen incidence at 25 g AI /100 L applied 24 hr prior inoculation to pruning wound measured after 3 months. Type of assay: functional.
Assay [6] deals with Neofusicoccum australe. Description: Fungicidal activity against Neofusicoccum australe J-3 assessed as mycelial growth inhibition after 48 hr. The following applies: pooled result: one value given for 3 cell lines, strains, targets or settings. Type of assay: functional, organism-based.
In assay [7] the test system is Neofusicoccum luteum. Kind of assay: Fungicidal activity against Neofusicoccum luteum infected Pinot noir grapevine assessed as dieback lesion length at 25 g AI /100 L applied 24 hr prior inoculation to pruning wound measured after 3 months. Type of assay: functional.
The test system of assay [8] is Neofusicoccum luteum. Description: Fungicidal activity against Neofusicoccum luteum infected Pinot noir grapevine assessed as mean pathogen compound applied 24 hr prior inoculation to pruning wound measured after 1 year. On the set-up: concentration or dose not given beside the values. Type of assay: functional.
The test system of assay [9] is Diplodia mutila. Kind of assay: Fungicidal activity against Diplodia mutila Q assessed as conidial germination inhibition after 48 hr. Type of assay: functional, organism-based. The following applies: pooled result: one value given for 3 cell lines, strains, targets or settings.
The subject of assay [10] is Neofusicoccum luteum. Description: Fungicidal activity against Neofusicoccum luteum N(12)2 assessed as mycelial growth inhibition after 48 hr. Type of assay: functional, organism-based. To be noted: pooled result: one value given for 3 cell lines, strains, targets or settings.
Assay [11] has as its system Neofusicoccum luteum. Description: Fungicidal activity against Neofusicoccum luteum infected Pinot noir grapevine assessed as non-lesion areas compound applied 24 hr prior inoculation to pruning wound measured after 1 year. Type of assay: functional. Details: concentration or dose not given beside the values.
In assay [12] the test system is Neofusicoccum luteum. Kind of assay: Fungicidal activity against Neofusicoccum luteum N(12)2 assessed as conidial germination inhibition after 48 hr. Type of assay: functional, organism-based. To be noted: pooled result: one value given for 3 cell lines, strains, targets or settings.
In assay [13] the test system is Neofusicoccum luteum. Description: Fungicidal activity against Neofusicoccum luteum infected Pinot noir grapevine assessed as pathogen incidence at closest side shoot compound applied 24 hr prior inoculation to pruning wound measured after 6 months. Type of assay: functional. On the set-up: concentration or dose not given beside the values.

For the molecule `COC(=O)Nc1nc2ccccc2[nH]1` [CARBENDAZIM], the EC50 in assay [1] is on record as 0.01 mgAi/L; in assay [6], 0.023 mgAi/L; in assay [9], 0.01 mgAi/L; in [10], 0.061 mgAi/L; in assay [12], 0.04 mgAi/L. In addition, the Activity in [2] amounted to 0%; in [3], 10%; in assay [4], 27%; in assay [5], 0%; in [7] it was 33.2 mm; in assay [8], 9%. Moreover, the Activity in [11] is given as 7%; in [13], 3%.

Values taken from ChEMBL document CHEMBL3046815, “Evaluation of fungicides for the management of Botryosphaeria dieback diseases of grapevines” (Pest Manag Sci, 2012).
